# Key:
# Format in all cases: cell-based, Bacillus amyloliquefaciens
# [1] = test system: B. amyloliquefaciens ART12; experiment: Antibiotic MIC, VetMIC Lact-1 & Lact-2 panels; settings: average results from N= 6, 24 hr at 37° C.; for MIC: Bacillus amyloliquefaciens, ART12
# Protocol: (§1) The wells of the prefabricated 96-well plates were filled with 100 μL of the final suspension. The plates were sealed with an […], Sigma Aldrich) sealing film (to facilitate growth of the aerobic Bacillus strains. The plates were then incubated for 24 hr at 37° C. The results are recorded after 24 hours as the lowest concentration of the antibiotic to inhibit visible growth. The prefabricated panels […], Uppsala, Sweden) comprising the antibiotics ampicillin, vancomycin, gentamicin, kanamycin, streptomycin, erythromycin, clindamycin, tetracycline, chloramphenicol, neomycin, penicillin, quinupristin-dalfopristin, linezolid, trimethoprim, ciprofloxacin and rifampicin were used.
# [2] = test system: B. amyloliquefaciens ART24; experiment: Antibiotic MIC, VetMIC Lact-1 & Lact-2 panels; settings: average results from N= 6, 24 hr at 37° C.; for MIC: Bacillus amyloliquefaciens, ART24
# Protocol: as §1
# [3] = test system: B. amyloliquefaciens ART4; experiment: Antibiotic MIC, VetMIC Lact-1 & Lact-2 panels; settings: average results from N= 6, 24 hr at 37° C.; for MIC: Bacillus amyloliquefaciens, ART4
# Protocol: as §1
# [4] = test system: B. amyloliquefaciens ART24; experiment: Antibiotic MIC following EFSA testing recommendations on lyophilized ART24 lots and cell banks; settings: for MIC: Bacillus amyloliquefaciens, read-out: MIC for ART24
# Text: The minimum inhibitory concentration (MIC) of the listed antimicrobials is expressed as µg/mL.
Compound,MIC [1],MIC [2],MIC [3],"MIC ([4]; ART24, source CO-33-12A2)","MIC ([4]; ART24, source CO-33 ART 24 BHI)","MIC ([4]; ART24, source CO-33 ART 024 S)","MIC ([4]; ART24, source YD CO-33-10A2)",MIC interpretation for ART24 ([4]; source CO-33-12A2),MIC interpretation for ART24 ([4]; source CO-33 ART 24 BHI),MIC interpretation for ART24 ([4]; source CO-33 ART 024 S),MIC interpretation for ART24 ([4]; source YD CO-33-10A2),B. amyloliquefaciens MIC ART12 [1],B. amyloliquefaciens MIC ART24 [2],B. amyloliquefaciens MIC ART4 [3],MIC for ART24 ([4]; source CO-33-12A2),MIC for ART24 ([4]; source CO-33 ART 24 BHI),MIC for ART24 ([4]; source CO-33 ART 024 S),MIC for ART24 ([4]; source YD CO-33-10A2)
CC(=O)NC[C@H]1CN(c2ccc(N3CCOCC3)c(F)c2)C(=O)O1 [Linezolid],0.5 µg/mL,0.5 µg/mL,0.5 µg/mL,0.5 µg/mL,0.5 µg/mL,0.5 µg/mL,0.25 µg/mL,,,,,,,,,,,
CC1(C)S[C@@H]2[C@H](NC(=O)[C@H](N)c3ccccc3)C(=O)N2[C@H]1C(=O)O [Ampicillin],0.25 µg/mL,0.25 µg/mL,0.12 µg/mL,≤ 0.03 µg/mL,≤ 0.03 µg/mL,≤ 0.03 µg/mL,≤ 0.03 µg/mL,S,S,S,S,,,,,,,
[H]/N=C(/N)N[C@H]1[C@H](O)[C@@H](O)[C@H](O[C@@H]2O[C@@H](C)[C@](O)(C=O)[C@H]2O[C@@H]2O[C@@H](CO)[C@H](O)[C@@H](O)[C@@H]2NC)[C@@H](N/C(N)=N\[H])[C@@H]1O [Streptomycin],4 µg/mL,4 µg/mL,4 µg/mL,1 µg/mL,1 µg/mL,2 µg/mL,1 µg/mL,S,S,S,S,,,,,,,
O=C(O)c1cn(C2CC2)c2cc(N3CCNCC3)c(F)cc2c1=O [Ciprofloxacin],≤ 0.25 µg/mL,≤ 0.25 µg/mL,≤ 0.25 µg/mL,≤ 0.03 µg/mL,≤ 0.03 µg/mL,≤ 0.03 µg/mL,≤ 0.03 µg/mL,S,S,S,S,,,,,,,
O=C(N[C@H](CO)[C@H](O)c1ccc([N+](=O)[O-])cc1)C(Cl)Cl [Chloramphenicol],4 µg/mL,4 µg/mL,2 µg/mL,2 µg/mL,2 µg/mL,2 µg/mL,2 µg/mL,S,S,S,S,,,,,,,
NC[C@H]1O[C@H](O[C@H]2[C@H](O)[C@@H](O[C@H]3O[C@H](CO)[C@@H](O)[C@H](N)[C@H]3O)[C@H](N)C[C@@H]2N)[C@H](O)[C@@H](O)[C@@H]1O [Kanamycin],≤ 2 µg/mL,≤ 2 µg/mL,≤ 2 µg/mL,≤ 0.5 µg/mL,≤ 0.5 µg/mL,≤ 0.5 µg/mL,≤ 0.5 µg/mL,S,S,S,S,,,,,,,
Gentamicin,,,,,,,,S,S,S,S,≤0.5 µg/mL,≤0.5 µg/mL,≤0.5 µg/mL,≤ 0.06 µg/mL,≤ 0.06 µg/mL,≤ 0.06 µg/mL,≤ 0.06 µg/mL
COc1cc(Cc2cnc(N)nc2N)cc(OC)c1OC [Trimethoprim],≤ 0.12 µg/mL,≤ 0.12 µg/mL,≤ 0.12 µg/mL,≤ 0.25 µg/mL,≤ 0.25 µg/mL,≤ 0.25 µg/mL,≤ 0.25 µg/mL,,,,,,,,,,,
Quinupristin-dalfopristin,,,,,,,,,,,,4 µg/mL,4 µg/mL,4 µg/mL,2 µg/mL,2 µg/mL,2 µg/mL,1 µg/mL
CN(C)[C@@H]1C(O)=C(C(N)=O)C(=O)[C@@]2(O)C(O)=C3C(=O)c4c(O)cccc4[C@@](C)(O)[C@H]3C[C@@H]12 [Tetracycline],8 µg/mL,4 µg/mL,1 µg/mL,2 µg/mL,2 µg/mL,2 µg/mL,2 µg/mL,S,S,S,S,,,,,,,
Penicillin,,,,,,,,S,S,S,S,0.5 µg/mL,0.12 to 0.5 µg/mL,0.12 µg/mL,≤ 0.03 µg/mL,≤ 0.03 µg/mL,0.06 µg/mL,≤ 0.03 µg/mL
CCC[C@@H]1C[C@@H](C(=O)N[C@@H]([C@H]2O[C@H](SC)[C@H](O)[C@@H](O)[C@H]2O)[C@H](C)Cl)N(C)C1 [Clindamycin],1 µg/mL,0.5 to 1 µg/mL,0.5 µg/mL,0.25 µg/mL,0.25 µg/mL,0.25 µg/mL,0.12 µg/mL,S,S,S,S,,,,,,,
CC[C@H]1OC(=O)[C@H](C)[C@@H](O[C@H]2C[C@@](C)(OC)[C@@H](O)[C@H](C)O2)[C@H](C)[C@@H](O[C@@H]2O[C@H](C)C[C@H](N(C)C)[C@H]2O)[C@](C)(O)C[C@@H](C)C(=O)[C@H](C)[C@@H](O)[C@]1(C)O [Erythromycin],0.12 µg/mL,0.12 µg/mL,0.12 µg/mL,0.06 µg/mL,0.12 µg/mL,0.12 µg/mL,0.06 µg/mL,S,S,S,S,,,,,,,

# From patent publication US20230132133A1, “METHODS AND COMPOSITIONS FOR THE TREATMENT OF C. DIFFICILE” (priority 2018, published 2023)
